{"source": "patent US20050197350A1", "about": "“Novel quinoline, tetrahydroquinazoline, and pyrimidine derivatives and methods of treatment related to the use thereof” (TAISHO PHARMACEUTICAL CO., LTD., priority 2003, published 2005)", "data": [{"test_system": "MCH receptors", "assay": "MCH receptor activity class (method not given)", "conditions": "activity class per percent of control at 10^-7 M or IC50", "values": [{"compound": "CN(C)c1nc(N[C@H]2CC[C@@H](CNC(=O)C3c4ccccc4Oc4ccccc43)CC2)nc2c1CCCC2", "note": "[compound 1083]", "class": "3 (Class 3 The value of percent of control at 10^−7 M was more than 60% or the value of IC50 was more than 200 nM.)"}, {"compound": "CN(C)c1nc(N[C@H]2CC[C@@H](CNC(=O)Cc3csc4ccccc34)CC2)nc2c1CCCC2", "note": "[compound 1084]", "class": "3 (Class 3 The value of percent of control at 10^−7 M was more than 60% or the value of IC50 was more than 200 nM.)"}, {"compound": "COc1cccc(OC)c1CN[C@H]1CC[C@@H](Nc2cc(N(C)C)c3ccccc3n2)CC1", "note": "[compound 1085]", "class": "3 (Class 3 The value of percent of control at 10^−7 M was more than 60% or the value of IC50 was more than 200 nM.)"}, {"compound": "CCOc1ccccc1CN[C@H]1CC[C@@H](Nc2cc(N(C)C)c3ccccc3n2)CC1", "note": "[compound 1086]", "class": "3 (Class 3 The value of percent of control at 10^−7 M was more than 60% or the value of IC50 was more than 200 nM.)"}, {"compound": "CN(C)c1cc(N[C@H]2CC[C@@H](NCc3c[nH]c4ccccc34)CC2)nc2ccccc12", "note": "[compound 1087]", "class": "3 (Class 3 The value of percent of control at 10^−7 M was more than 60% or the value of IC50 was more than 200 nM.)"}, {"compound": "COc1ccc(OC)c(CN[C@H]2CC[C@@H](Nc3cc(N(C)C)c4ccccc4n3)CC2)c1", "note": "[compound 1088]", "class": "3 (Class 3 The value of percent of control at 10^−7 M was more than 60% or the value of IC50 was more than 200 nM.)"}, {"compound": "COc1ccc(CN[C@H]2CC[C@@H](Nc3cc(N(C)C)c4ccccc4n3)CC2)c2ccccc12", "note": "[compound 1089]", "class": "3 (Class 3 The value of percent of control at 10^−7 M was more than 60% or the value of IC50 was more than 200 nM.)"}, {"compound": "COc1ccc2[nH]cc(CN[C@H]3CC[C@@H](Nc4cc(N(C)C)c5ccccc5n4)CC3)c2c1", "note": "[compound 1090]", "class": "3 (Class 3 The value of percent of control at 10^−7 M was more than 60% or the value of IC50 was more than 200 nM.)"}, {"compound": "COc1ccc2ccccc2c1CN[C@H]1CC[C@@H](Nc2cc(N(C)C)c3ccccc3n2)CC1", "note": "[compound 1091]", "class": "3 (Class 3 The value of percent of control at 10^−7 M was more than 60% or the value of IC50 was more than 200 nM.)"}, {"compound": "COc1cc(Br)cc(CN[C@H]2CC[C@@H](Nc3cc(N(C)C)c4ccccc4n3)CC2)c1O", "note": "[compound 1092]", "class": "3 (Class 3 The value of percent of control at 10^−7 M was more than 60% or the value of IC50 was more than 200 nM.)"}, {"compound": "CN(C)c1cc(N[C@H]2CC[C@@H](NCc3c[nH]c4ccc(Br)cc34)CC2)nc2ccccc12", "note": "[compound 1093]", "class": "3 (Class 3 The value of percent of control at 10^−7 M was more than 60% or the value of IC50 was more than 200 nM.)"}, {"compound": "COc1ccc(CN[C@H]2CC[C@@H](Nc3cc(N(C)C)c4ccccc4n3)CC2)c(OC)c1", "note": "[compound 1094]", "class": "3 (Class 3 The value of percent of control at 10^−7 M was more than 60% or the value of IC50 was more than 200 nM.)"}, {"compound": "COc1ccc(CN[C@H]2CC[C@@H](Nc3cc(N(C)C)c4ccccc4n3)CC2)c(OC)c1OC", "note": "[compound 1095]", "class": "3 (Class 3 The value of percent of control at 10^−7 M was more than 60% or the value of IC50 was more than 200 nM.)"}, {"compound": "COc1cc(CN[C@H]2CC[C@@H](Nc3cc(N(C)C)c4ccccc4n3)CC2)cc(OC)c1O", "note": "[compound 1096]", "class": "3 (Class 3 The value of percent of control at 10^−7 M was more than 60% or the value of IC50 was more than 200 nM.)"}, {"compound": "CCOc1cc(CN[C@H]2CC[C@@H](Nc3cc(N(C)C)c4ccccc4n3)CC2)ccc1OC", "note": "[compound 1097]", "class": "3 (Class 3 The value of percent of control at 10^−7 M was more than 60% or the value of IC50 was more than 200 nM.)"}, {"compound": "CN(C)c1cc(N[C@H]2CC[C@@H](NCc3c[nH]nc3-c3ccc(C(F)(F)F)cc3)CC2)nc2ccccc12", "note": "[compound 1098]", "class": "3 (Class 3 The value of percent of control at 10^−7 M was more than 60% or the value of IC50 was more than 200 nM.)"}, {"compound": "COc1cc(CN[C@H]2CC[C@@H](Nc3cc(N(C)C)c4ccccc4n3)CC2)cc(OC)c1OC", "note": "[compound 1099]", "class": "3 (Class 3 The value of percent of control at 10^−7 M was more than 60% or the value of IC50 was more than 200 nM.)"}]}]}
